# In patent publication US11034725B2, “Compositions and methods for treating cardiovascular disease” (Genentech, Inc., priority 2016, dated 2021):
# Entries after “also recorded” stand apart in the source; their conditions may differ. Like-named read-outs stand apart in the source and are kept apart here. Square brackets hold non-standard residues; d marks the D form. Peptide text beside a SMILES is read from it. hArg = N=C(N)NCCCC[C@H](N)C(=O)O
# What was measured:
# PCSK9Δhelix [1] = biological target: T1, PCSK9Δhelix (Homo sapiens, UniProt Q8NBP7); assay: Surface plasmon resonance biosensor-based affinity analysis (Example 4); type: binding
# T1 construct: Human PCSK9 construct M1-Q692 with an engineered TEV site (residue deletion Y166, R167); made in house; host or cells: CHO
# PCSK9 [2] = biological target: T2, PCSK9 (Homo sapiens, UniProt Q8NBP7); assay: PCSK9/EGF(A) TR-FRET binding assay
# PCSK9Δhelix [3] = biological target: T1, PCSK9Δhelix; assay: PCSK9Δhelix/Ab20 TR-FRET binding assay
# His-EGF(A)-Fc = His-EGF(A)-Fc TR-FRET counterscreen
# PCSK9 [4] = biological target: T2, PCSK9; assay: Cell surface LDLR assay with HepG2 cells; type: cell-based; details: for surface LDLR levels restored: maximal restoration, percent of control without PCSK9
# Protocol: HepG2 cells (ATCC; Manassas, Va.) were seeded into 48 well plates (Corning; Corning, N.Y.) at 1×10^5 cells per well in high glucose medium (DMEM, Gibco; Carlsbad, Calif.) containing 2 mM glutamine (Sigma), penicillin/streptomycin (Gibco) and 10% FBS (Sigma; St. Louis, Mo.) and incubated overnight. Then the medium was changed to DMEM containing 10% lipoprotein deficient serum (LPDS, Sigma). After 24 h, 15 μg/mL PCSK9 was incubated with peptides or Fab33 for 30 min, added to the cells and incubated at 37° C. for 4 h. Cells were rinsed with PBS and detached using Cell Dissociation Buffer in PBS (Gibco). After centrifugation, the resuspended cells were incubated with 1:20 anti LDLR antibody (Progen Biotechnik; Heidelberg, Germany) on ice for 10 min. The samples were then washed with PBS and incubated with 1:200 diluted goat anti mouse IgG (H+L) Alexa Fluor 488 (Invitrogen; Carlsbad, Calif.) on ice for 5 min. After two PBS washes, cells were re suspended in PBS containing 2.5 μg/mL of propidium iodide and analyzed on a dual laser flow cytometer (FACScan, Becton Dickinson; Franklin Lakes, N.J.). Relative fluorescence units (RFUs) were used to quantify LDLR expression levels on the HepG2 cell surface. Cell surface LDLR levels were expressed as percent of LDLR levels measured in the absence of PCSK9 (=control).
# The effect of Compound 229 on PCSK9-mediated LDL receptor degradation was measured in a HepG2 cell assay as previously described (Zhang et al., J Biol Chem. 2014 Jan. 10; 289(2):942-55). Peptides at various concentrations were preincubated with 15 μg/mL PCSK9 in the presence of 0.5% DMSO for 30 min prior to the addition to cells. After a 4 h incubation, the cells were processed for measurements of LDL receptor surface levels by flow cytometry as described (Zhang et al., J Biol Chem. 2014 Jan. 10; 289(2):942-55) (FIG. 37).
# PCSK9 [5] = biological target: T2, PCSK9; assay: Phage competition ELISA; type: binding; details: binding of peptide-displaying phage to PCSK9; listed as Pep2-8_K9gvpep7
# Protocol: (§1) The sequences of selected clones were fused to the N-terminus of M13 major coat protein (p8) using Kunkel mutagenesis method (Kunkel et al., Methods Enzymol 154, 367-82). The resulting construct was transformed to E. Coli. XL1 blue, single colony was grown in 1 mL 2YT supplemented with 50 μg/mL carbenicillin, 10 μg/mL Tetracycline and M13 KO7 helper phage at 37° C. for 2 h, Kanamycin was added to final concentration of 25 μg/mL, growth was continued at 37° C. for 6 h. The culture was transferred to 30 mL 2YT supplemented with 50 μg/mL carbenicillin and 25 μg/mL kanamycin and grown at 37° C. overnight. The next day, the phage was harvested and purified using the standard protocol (Tonikian et al. Nat Protoc. 2007; 2(6):1368-86). The serially diluted phage solution was applied to the biotinylated PCSK9 and biotinylated PCSK9Δhelix that had been immobilized for 15 min on a 384-well MaxiSorp ImmunoPlate previously coated with 5 μg/mL NeutrAvidin and blocked with Block buffer. The plate was incubated at 4° C. for 1 h, washed 10 times with PT buffer (PBS, 0.05% Tween® 20). The bound phage was detected with anti-M13-HRP and the ELISA signal was read at OD450 nm. The background was ELISA signal that the phage directly bound to NeutrAvidin-coated plate. The data was plotted and the curve fitted with KaleidaGraph. Sub-saturating phage concentration that gave 80% of maximum binding signal was determined by the binding curve.
# IC50 measurements were performed by mixing a fixed sub-saturating concentration of peptide-displaying phage with a serial dilution of synthetic peptides in PBT buffer. The mixture was added to plates coated with PCSK9 and PCSK9Δhelix and incubated for 1 h at room temperature. The plates were then washed 10 times with PBT buffer and the bound phage was detected by anti-M13-HRP. The data was plotted, curve fitted and IC50 derived by use of KaleidaGraph. All measurements were repeated 3 times independently.
# PCSK9Δhelix [6] = biological target: T1, PCSK9Δhelix; assay: Phage competition ELISA; details: binding of peptide-displaying phage to PCSK9Δhelix
# Protocol: as §1, with “The serially diluted phage solution was applied to the biotinylated PCSK9 and biotinylated PCSK9Δhelix that had been immobilized for 15 min on a 384-well MaxiSorp ImmunoPlate previously coated with 5 μg/mL NeutrAvidin and blocked with Block buffer. The plate was incubated at 4° C. for 1 h, washed 10 times with PT buffer (PBS, 0.05% Tween® 20).” left out, “The background was ELISA signal that the phage directly bound to NeutrAvidin-coated plate. The data was plotted and the curve fitted with KaleidaGraph.” left out
# IC50 measurements were performed by mixing a fixed sub-saturating concentration of peptide-displaying phage with a serial dilution of synthetic peptides in PBT buffer. […] The plates were then washed 10 times with PBT buffer and the bound phage was detected by anti-M13-HRP. […]
# PCSK9 [7] = biological target: T2, PCSK9; assay: PCSK9/LDLR-Fc TR-FRET assay (LDLR assay); type: binding; details: for IC50: Table 11, LDLR-Fc, average ±S.D. of three experiments
# Protocol: In black 1536-well assay plates (MaKO, Aurora® Microplates, Whitefish, Mont.), 40 nL of peptide in DMSO were preincubated with 2 μL His-tagged PCSK9 plus anti-His-allophycocyanin in assay buffer (50 mM Tris-HCl, pH 7.5, 150 mM NaCl, 2 mM CaCl2, 0.01% Tween®-20, 0.1% bovine gamma globulins, and protease inhibitor cocktail) for 30 min. Then 2 μL of Fc-tagged ligand and anti-Fc-europium in assay buffer were added and allowed to incubate for 2 h. The PCSK9 and ligand conditions for each assay are as follows: 10 nM C-terminal (His)8-tagged PCSK9 (“(His)8” disclosed as SEQ ID NO: 304) and 12 nM EGF(A)-Fc for the EGF(A) assay, 10 nM C-terminal (His)8-tagged PCSK9 (“(His)8” disclosed as SEQ ID NO: 304) and 2.5 nM LDLR-Fc for the LDLR assay, 1.25 nM C-terminal (His)8-tagged PCSK9Δhelix (“(His)8” disclosed as SEQ ID NO: 304) and 0.75 nM Ab20 for the Ab20 assay, and 2 nM His-EGF(A)-Fc alone for the counterscreen. In all assays, anti-His-allophycocyanin and anti-Fc-europium were used at 20 nM and 2 nM, respectively. Fluorescence was measured with excitation at 340 nm and emission at 671 nm and 618 nm. The TR-FRET ratio was calculated as fluorescence at 671 nm/fluorescence at 618 nm. The ratios were normalized to controls and plotted against peptide concentration to determine IC50 values (Screener Analyzer, Genedata, Basel, CH). The peptides were evaluated in three separate experiments per assay with 10-point titrations and n=2 per concentration. The values presented are the average ±S.D. of three independent experiments.
# PCSK9 [8] = biological target: T2, PCSK9; assay: SPR affinity measurements of peptide binding (Example 8); details: Example 8, with standard error; read-out: KD, binding affinity to PCSK9 in SPR experiments
# Protocol: A Biacore™ T100 or Biacore™ 8K was adjusted to 20° C. The system was primed into assay buffer which consisted of 25 mM HEPES, pH 7.5, 0.15 M NaCl, 0.005% (v/v) Tween® 20, 0.2 mM tris(2-carboxyethyl)phosphine and optionally contained 0.1% (w/v) carboxymethylated dextran (average MW 10 kDa) and 0.2% (w/v) PEG (average MW 3450 Da) in order to reduce potential non-specific binding. Peptides were assayed by capturing fresh PCSK9 or PCSK9Δhelix after each binding regeneration cycle by exploiting a histidine tag and an NTA-sensor chip. The surface was charged with (His)8-tagged PCSK9 (approximately 800 RU captured). […] Compound 19 and Compound 20 were assayed in six serial two-fold dilutions from 100 nM to 3.1 nM. All peptides were analyzed in duplicate by serial injection (50 μL/min for 1 min) of peptide dilution from low to high concentration. The surface was then stripped of target by injecting 0.5 M EDTA, pH 8.0. This sequence was repeated for each peptide binding cycle and blank control cycles.
# All SPR data was recorded in duplicate for five, or more serial dilutions, except for the two fusion peptides, which produced extremely low fitting error. Multicycle data (i.e. separate curves for each concentration) and single cycle data (i.e. single curve with serial injection of each concentration) were double referenced and fitted to an interaction model using BIAevaluation software. Peptide binding to PCSK9 produced deviations from a simple 1:1 binding interaction model that required application of a two-state model for determination of Kd while interactions with PCSK9Δhelix conformed well to simple 1:1 binding. Kinetic curvature was poorly defined for rapidly dissociating peptides and in these cases Kd was estimated from a steady-state dose response plot. Kd values were reported with associated standard error, a measure of confidence in that parameter value.
# [9] = TR-FRET, Table 8E, additional compounds, read-out: PCSK9/EGF(A) IC50
# [10] = Table 11, average ±S.D. of three experiments, read-out: EGF(A) IC50
# [11] = TR-FRET, Table 8E, additional compounds, read-out: PCSK9Δhelix/Ab20 IC50
# [12] = Table 11, average ±S.D. of three experiments, read-out: Ab20 IC50
# [13] = TR-FRET counterscreen, Table 8E, additional compounds
Compound,inhibition in the PCSK9/EGF(A) binding assay (PCSK9 [2]),inhibition in the PCSK9Δhelix/Ab20 binding assay (PCSK9Δhelix [3]),surface LDLR levels restored (PCSK9 [4]; HepG2 cells) [%],IC50 (PCSK9 [2]; [9]) [µM],IC50 (PCSK9 [2]; [10]) [µM],IC50 (PCSK9Δhelix [3]; [11]) [µM],IC50 (PCSK9Δhelix [3]; [12]) [µM],IC50 (His-EGF(A)-Fc; [13]) [µM],inhibition of LDLR-Fc binding to PCSK9 (PCSK9 [7]),IC50 (PCSK9 [7]) [µM],Kd (PCSK9 [8]) [µM],other results
Ac-TVFTSWEEYLDWVGSGDLMPWNLVRIGLLR-NH2 [Compound 20],significantly improved relative to Pep2-8,low nanomolar concentrations,100,–,–,–,–,–,–,–,–,"Kd range for PCSK9Δhelix binding (PCSK9Δhelix [1]): sub-nanomolar range; Kd (PCSK9Δhelix [1]; Table 7, Target PCSK9Δhelix, SPR at 20° C., read-out: Kd): 0.000366 µM; IC50 (PCSK9Δhelix [3]; TR-FRET, Example 7, read-out: PCSK9Δhelix/Ab20 IC50): 0.001 µM; IC50 (His-EGF(A)-Fc; counterscreen, Example 7): > 50 µM; EC50 (PCSK9 [4]; HepG2 cells, 15 μg/mL PCSK9, 4 h, FACS): 1 to 5 µM; IC50 in phage competition ELISA (PCSK9 [5]): low nanomolar range; also recorded: single digit nanomolar range; IC50 in phage competition ELISA (PCSK9Δhelix [6]): single digit nanomolar range"
CC[C@H](C)[C@H](NC(=O)[C@H](CCCCNC(=N)N)NC(=O)[C@@H](NC(=O)[C@H](CC(C)C)NC(=O)[C@H](CC(N)=O)NC(=O)[C@H](Cc1c[nH]c2ccccc12)NC(=O)CNC(=O)[C@@H]1CCCN1C(=O)[C@H](Cc1ccccc1)NC(=O)[C@H](CO)NC(=O)[C@H](CCC(=O)O)NC(=O)[C@H](CCSC)NC(C)=O)C(C)C)C(=O)NCC(=O)N[C@@H](CC(C)C)C(=O)N[C@@H](CC(C)C)C(=O)N[C@@H](CCCNC(=N)N)C(N)=O [Compound 229] (Ac-MESFPGWNLV[hArg]IGLLR-NH2),inhibited; also recorded: inhibition,inhibition,≤ 70,0.81,8.3 ± 0.1,8.1,0.84 ± 0.08,≥ 50,inhibited; also recorded: inhibition,25 ± 0.8,0.94 ± 0.01,improvement of affinity to PCSK9Δhelix versus Compound 192 (PCSK9Δhelix [3]; Table 11): more than 6 fold; response in the His-EGF(A)-Fc counterscreen (His-EGF(A)-Fc): without interference; inhibition of PCSK9-mediated LDLR degradation in HepG2 cells (PCSK9 [4]): concentration-dependent manner; also recorded: concentration-dependent inhibition
CC[C@H](C)[C@H](NC(=O)[C@H](CCCCNC(=N)N)NC(=O)[C@@H](NC(=O)[C@H](CC(C)C)NC(=O)[C@H](CC(N)=O)NC(=O)[C@H](Cc1c[nH]c2ccccc12)NC(=O)CNC(=O)[C@@H]1CCCN1C(=O)[C@H](Cc1ccccc1)NC(=O)[C@H](C)NC(=O)[C@H](Cc1ccccc1)NC(=O)[C@H](CO)NC(C)=O)C(C)C)C(=O)NCC(=O)N[C@@H](CC(C)C)C(=O)N[C@@H](CC(C)C)C(=O)N[C@@H](CCCNC(=N)N)C(N)=O [Compound 228] (Ac-SFAFPGWNLV[hArg]IGLLR-NH2),inhibited,–,–,1.3,13.2 ± 0.8,13,1.37 ± 0.12,≥ 50,inhibited,30.4 ± 1.1,2.8 ± 0.05,–
